Assay results from publication PMC6900016, “Synthesis of Indomorphan Pseudo‐Natural Product Inhibitors of Glucose Transporters GLUT‐1 and ‐3” (Angewandte Chemie (International Ed. in English), 2019).

Tests used:
Test in all cases: cells
Design in all cases: Cell growth inhibition, sulforhodamine B total protein staining
[1] = test system: CACO2; conditions: Homo sapiens, Caco-2; 72 h growth; read-out: Cell growth inhibition IC50/µM
Description: (§1) Cell panel profiling A panel of 94 cell lines was exposed to Glupin for 72 h to assess the influence on cell growth (Oncolead, Germany). Cell growth was determined using sulforhodamine B assay. Measurements were performed using a total protein staining protocol. Briefly, after treatement cells were fixed addition of 10% TCA (for adherent growing cells) or 50% TCA (for semi-adherent growing cells or cells growing in suspension). After an incubation at 4°C for 1 h, plates were washed twice with 400 μl of deionized water and dried. Cells were then stained with 100 μl of 0.04% wt/v sulforhodamine B. Plates were incubated at room temperature for at least 30 min and washed six times with 1% acetic acid to remove unbound stain. […] This effect was much stronger at a physiological glucose concentration (5 mM; Figure 5 b,c). […] IC50 values lower than 300 nM were obtained for more than 20 cell lines, whereas 24 cell lines were not affected by the compound, among them the peripheral blood mononuclear control cells (PBMCs). Sensitivity to Glupin was detected across various tissue types (Table S6).

[2] = test system: COLO678; conditions: Homo sapiens, COLO-678; 72 h growth; read-out: Cell growth inhibition IC50/µM
Description: as §1

[3] = test system: K562; conditions: Homo sapiens, K562; 72 h growth; read-out: Cell growth inhibition IC50/µM
Description: as §1

[4] = test system: PBMC; conditions: PBMC; 72 h growth; read-out: Cell growth inhibition IC50/µM
Description: as §1

[5] = test system: PANC1005; conditions: Homo sapiens, Panc1005; 72 h growth; read-out: Cell growth inhibition IC50/µM
Description: as §1

[6] = test system: IGROV1; conditions: Homo sapiens, IGROV-1; 72 h growth; read-out: Cell growth inhibition IC50/µM
Description: as §1

[7] = test system: L363; conditions: Homo sapiens, L-363; 72 h growth; read-out: Cell growth inhibition IC50/µM
Description: as §1

[8] = test system: SKMEL28; conditions: Homo sapiens, SK-MEL-28; 72 h growth; read-out: Cell growth inhibition IC50/µM
Description: as §1

[9] = test system: SKOV3; conditions: Homo sapiens, SK-OV-3; 72 h growth; read-out: Cell growth inhibition IC50/µM
Description: as §1

[10] = test system: RD; conditions: Homo sapiens, RD; 72 h growth; read-out: Cell growth inhibition IC50/µM
Description: as §1

[11] = test system: SKMEL5; conditions: Homo sapiens, SK-MEL-5; 72 h growth; read-out: Cell growth inhibition IC50/µM
Description: as §1

[12] = test system: MDAMB436; conditions: Homo sapiens, MDA-MB-436; 72 h growth; read-out: Cell growth inhibition IC50/µM
Description: as §1

[13] = test system: U87MG; conditions: Homo sapiens, U-87 MG; 72 h growth; read-out: Cell growth inhibition IC50/µM
Description: as §1

[14] = test system: JAR; conditions: 72 h growth; read-out: Cell growth inhibition IC50/µM
Description: as §1

[15] = test system: SUDHL6; conditions: Homo sapiens, SU-DHL-6; 72 h growth; read-out: Cell growth inhibition IC50/µM
Description: as §1

[16] = test system: DU145; conditions: Homo sapiens, DU-145; 72 h growth; read-out: Cell growth inhibition IC50/µM
Description: as §1

[17] = test system: MINO; conditions: Homo sapiens, MINO; 72 h growth; read-out: Cell growth inhibition IC50/µM
Description: as §1

[18] = test system: NCIH82; conditions: Homo sapiens, NCI-H82; 72 h growth; read-out: Cell growth inhibition IC50/µM
Description: as §1

[19] = test system: 22RV1; conditions: Homo sapiens, 22Rv1; 72 h growth; read-out: Cell growth inhibition IC50/µM
Description: as §1

[20] = test system: EJ28; conditions: Homo sapiens, EJ-28; 72 h growth; read-out: Cell growth inhibition IC50/µM
Description: as §1

[21] = test system: JEG3; conditions: Homo sapiens, JEG-3; 72 h growth; read-out: Cell growth inhibition IC50/µM
Description: as §1

[22] = test system: HCT15; conditions: Homo sapiens, HCT-15; 72 h growth; read-out: Cell growth inhibition IC50/µM
Description: as §1

[23] = test system: HL60; conditions: Homo sapiens, HL-60; 72 h growth; read-out: Cell growth inhibition IC50/µM
Description: as §1

With `CCOC(=O)Cn1c2c(c3ccccc31)C[C@@H]1C[C@H]2C(OC)CN1C(=O)c1cccnc1SC` (single isomer, unassigned; (+)) [(+)-5a, Glupin] the IC50 [1] was 3.51 µM, the IC50 [2] was > 30 µM and the IC50 [3] was 0.137 µM. For the same molecule, the IC50 [4] was > 30 µM, the IC50 [5] was 0.269 µM and the IC50 [6] was 1.76 µM. The IC50 [7] was 2.87 µM, the IC50 [8] was > 30 µM and the IC50 [9] was 6.07 µM. For the same molecule, the IC50 [10] was 0.842 µM, the IC50 [11] was > 30 µM and the IC50 [12] was 11.1 µM. For the same molecule, the IC50 [13] was > 30 µM, the IC50 [14] was 0.886 µM and the IC50 [15] was 0.092 µM. The IC50 [16] was 0.317 µM, the IC50 [17] was 1.77 µM and the IC50 [18] was 1.17 µM. It also gave an IC50 [19] of 5.57 µM, an IC50 [20] of 1.39 µM and an IC50 [21] of 0.933 µM. For the same molecule, the IC50 [22] was 0.407 µM and the IC50 [23] was 0.112 µM.
